Data on 1 compound can be found in patent US20050187288A1, “Beta-lapachone and methods of treating cancer” (priority 2004, published 2005).

In one data set the test system is 60 cancer cell lines. Put plainly: NCI in vitro screen of 60 cancer cell lines, sulforhodamine B assay. The data set is classed as cell-based. The settings on record: Homo sapiens, 60 cell, read-out: LC50 (log10 molar concentration causing 50% lethality), mean across all cells (converted). The protocol: The NCI screen includes cell lines isolated from leukemia, non-small cell lung cancer (NSCLC), colon, […] (CNS), melanoma, ovarian, renal, prostate and breast cancer tissues.
The NCI assays were performed under standardized conditions and use the sulforhodamine B assay as the endpoint. The NCI set of 60 lines included nine colon cancer cell lines (COLO 205, DLD-1, HCC-2998, HCT-116, HCT-15, HT29, KM12, KM20L2, and SW-620).
The NCI assays were performed under standardized conditions and use the sulforhodamine B assay as the endpoint. The NCI set of 60 lines included twelve non-small cell lung cancer cell lines (A549, EKVX, HOP-18, HOP-19, HOP-62, HOP-92, NCI-H226, NCI-H23, NCI-H322M, NCI-H460, NCI-H522, and LXFL 529), and three small cell lung cancer cell lines (DMS 114, DMS 273, AND SHP-77).
Background: The SRB assay estimates cell density from bound dye.

The conditions of data set [1]: dog, in vivo.
The nature of data set [2]: Reversibility of binding to human plasma proteins. The data set is classed as in vitro ADME. To be noted: pooled human plasma, dialyzed three times against fresh plasma, 37° C., read-out: fraction in plasma reversibly bound to plasma proteins. The method, then:
The spiked plasma was incubated at 37° C. for 1 h, and then was dialyzed three times against fresh plasma aliquots at 37° C.

The next data set relates to G480 lung cancer cells. Description: Colony formation assay, single agents and combination. In kind it is cell-based. An excerpt:
Control plates received the same volume of DMSO alone. […] Treated wells were presented as percentage of control. Data were presented as an average (+SEM) from three independent experiments.

The subject of the next data set is SK-OV-3. Put plainly: cells. To be noted: Homo sapiens, SK-OV-3, read-out: LC50 (Replicate Results), SK-OV-3, 4 hour exposure, colonies after 14-21 days.
Where [3] appears, read: 4 μM for 4 hours, vs carrier alone.

Consider `CC1(C)CCC2=C(O1)c1ccccc1C(=O)C2=O` [β-lapachone, 3,4-dihydro-2,2-dimethyl-2H-naphtho [1,2-b]pyran-5,6-dione], for which the CC50 is 8.51 µM with 60 cancer cell lines and 1.18 µM with SK-OV-3. Besides, in data set [1], the “plasma levels (preliminary toxicokinetic results)” value is given as “significantly above the values predicted”. Further, in data set [1] (iv, 5 mg/kg), the tolerability result is given as “well-tolerated”. For the same compound, in data set [2], the fraction unbound at 10 μM was ≤ 0.35. Moreover, the cell death in the data set with G480 lung cancer cells (setting [3]) is 68%. Besides, the survival of cells in the data set with G480 lung cancer cells (setting [3]) is listed as 32%. For the same compound, in the data set with G480 lung cancer cells (G480, β-lapachone 4 μM, 4 hours, average (SEM) of three experiments), the “Colonies (percent control)” value is 32 (0.3) percent control.
